Reference: PubChem BioAssay AID248 (DTP/NCI, 2004)
Values joined by “and” are separate entries in the source; they are usually repeats but may differ in a detail not shown here. Identical values can stand only once. Toxic doses and inconclusive results are not listed. No stated cut-off is given here; in the data, active means T/C of 150% or more; inactive means T/C below 125%.

Tested on: L1210 leukemia ip in BDF1 mice, survival T/C
Assay: NCI In Vivo Anticancer Drug Screen. Data for tumor model L1210 Leukemia (intraperitoneal) in B6D2F1 (BDF1) mice
Settings: endpoint: mean survival time, higher = longer survival
Summary of the method: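 Read-out is survival time, reported as the treated-group measurement over the vehicle-control measurement.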

[1] = dose: 100.0 mg/kg/injection, schedule: Q01DX009 (ip), vehicle: saline with Tween-80
[2] = dose: 100.0 mg/kg/injection, schedule: Q04DX003 (ip), vehicle: saline with Tween-80
[3] = dose: 200.0 mg/kg/injection, schedule: Q01DX009 (ip), vehicle: saline with Tween-80
[4] = dose: 200.0 mg/kg/injection, schedule: Q04DX003 (ip), vehicle: saline with Tween-80
[5] = dose: 100.0 mg/kg/injection, schedule: Q01DX009 (ip), vehicle: saline
[6] = dose: 100.0 mg/kg/injection, schedule: Q04DX003 (ip), vehicle: saline
[7] = dose: 200.0 mg/kg/injection, schedule: Q01DX009 (ip), vehicle: saline
[8] = dose: 200.0 mg/kg/injection, schedule: Q04DX003 (ip), vehicle: saline
[9] = dose: 400.0 mg/kg/injection, schedule: Q01DX009 (ip), vehicle: saline
[10] = dose: 100.0 mg/kg/injection, schedule: Q01DX009 (ip), vehicle: Klucel (hydroxypropylcellulose) (HPC)
[11] = dose: 100.0 mg/kg/injection, schedule: Q04DX003 (ip), vehicle: Klucel (hydroxypropylcellulose) (HPC)
[12] = dose: 200.0 mg/kg/injection, schedule: Q01DX009 (ip), vehicle: Klucel (hydroxypropylcellulose) (HPC)
[13] = dose: 200.0 mg/kg/injection, schedule: Q04DX003 (ip), vehicle: Klucel (hydroxypropylcellulose) (HPC)
[14] = dose: 400.0 mg/kg/injection, schedule: Q01DX009 (ip), vehicle: Klucel (hydroxypropylcellulose) (HPC)
[15] = dose: 400.0 mg/kg/injection, schedule: Q04DX003 (ip), vehicle: Klucel (hydroxypropylcellulose) (HPC)
[16] = dose: 25.0 mg/kg/injection, schedule: Q01DX009 (ip), vehicle: Klucel (hydroxypropylcellulose) (HPC)
[17] = dose: 50.0 mg/kg/injection, schedule: Q01DX009 (ip), vehicle: Klucel (hydroxypropylcellulose) (HPC)
[18] = dose: 100.0 mg/kg/injection, schedule: Q01DX001 (ip), vehicle: saline
[19] = dose: 200.0 mg/kg/injection, schedule: Q01DX001 (ip), vehicle: saline
[20] = dose: 400.0 mg/kg/injection, schedule: Q01DX001 (ip), vehicle: saline
[21] = dose: 6.25 mg/kg/injection, schedule: Q04DX003 (ip), vehicle: saline
[22] = dose: 12.5 mg/kg/injection, schedule: Q04DX003 (ip), vehicle: saline
[23] = dose: 25.0 mg/kg/injection, schedule: Q04DX003 (ip), vehicle: saline

Measured: T/C

Cc1ccc(S(=O)(=O)OC2CC(C(=O)O)N(S(=O)(=O)c3ccc(C)cc3)C2)cc1 (centres undefined)
inactive: [1] 104 % of control | [2] 98 % of control and 92 % of control | [3] 95 % of control | [4] 97 % of control and 101 % of control | dose: 400.0 mg/kg/injection, schedule: Q04DX003 (ip), vehicle: saline with Tween-80 96 % of control and 107 % of control

O=C1/C(=C\c2ccccc2)OC(c2ccccc2)O/C1=C/c1ccccc1 (centres undefined)
inactive: [5] 91 % of control | [6] 91 % of control | [7] 98 % of control | [8] 96 % of control | [9] 88 % of control | dose: 400.0 mg/kg/injection, schedule: Q04DX003 (ip), vehicle: saline 98 % of control

CCOC(=O)CCC(C)(c1ccc(O)cc1)c1ccc(O)cc1
inactive: dose: 50.0 mg/kg/injection, schedule: Q01DX009 (ip), vehicle: saline with Tween-80 98 % of control | dose: 50.0 mg/kg/injection, schedule: Q04DX003 (ip), vehicle: saline with Tween-80 93 % of control | [1] 96 % of control | [2] 93 % of control | [3] 96 % of control | [4] 102 % of control

Cc1cccc(NC(=O)COc2ccc(Cl)cc2)c1C
inactive: [10] 97 % of control | [11] 92 % of control | [12] 94 % of control | [13] 95 % of control | [14] 97 % of control | [15] 96 % of control

O=C(NNCc1ccccc1)C(O)C(O)C(O)CO (centres undefined)
inactive: [16] 93 % of control | [17] 96 % of control | [10] 104 % of control | [12] 94 % of control | [14] 103 % of control

CCCCCCCCCCCCCCn1cnc2c(N)ncnc21
inactive: dose: 12.5 mg/kg/injection, schedule: Q01DX005 (ip), vehicle: other 101 % of control | dose: 25.0 mg/kg/injection, schedule: Q01DX005 (ip), vehicle: other 111 % of control | dose: 50.0 mg/kg/injection, schedule: Q01DX005 (ip), vehicle: other 101 % of control | dose: 100.0 mg/kg/injection, schedule: Q01DX005 (ip), vehicle: other 106 % of control

CCCCNC(=O)CSc1cc(Cl)c(Cl)cc1Cl
inactive: dose: 100.0 mg/kg/injection, schedule: Q01DX001 (ip), vehicle: saline with Tween-80 91 % of control | dose: 200.0 mg/kg/injection, schedule: Q01DX001 (ip), vehicle: saline with Tween-80 91 % of control | dose: 400.0 mg/kg/injection, schedule: Q01DX001 (ip), vehicle: saline with Tween-80 95 % of control

Oc1ccc(/C=N\Nc2ccccn2)c(O)c1
inactive: [10] 88 % of control | [12] 91 % of control

CCOC(=O)c1ccc(N=Cc2cnc3nc(NC(C)=O)[nH]c(=O)c3n2)cc1
inactive: dose: 100.0 mg/kg/injection, schedule: Q01DX001 (ip), vehicle: other 103 % of control | dose: 200.0 mg/kg/injection, schedule: Q01DX001 (ip), vehicle: other 96 % of control | dose: 400.0 mg/kg/injection, schedule: Q01DX001 (ip), vehicle: other 103 % of control

NC(N)=NC(N)=NCc1ccc(S(N)(=O)=O)cc1
inactive: [18] 102 % of control | [5] 96 % of control | [19] 94 % of control | [7] 100 % of control | [20] 103 % of control | [9] 97 % of control

C=CCOCCN1CCN(CCCN2c3ccccc3Sc3ccc(C(F)(F)F)cc32)CC1
inactive: dose: 0.23 mg/kg/injection, schedule: Q01DX009 (ip), vehicle: saline 93 % of control | dose: 0.35 mg/kg/injection, schedule: Q01DX009 (ip), vehicle: saline 86 % of control | dose: 0.54 mg/kg/injection, schedule: Q01DX009 (ip), vehicle: saline 98 % of control | dose: 1.09 mg/kg/injection, schedule: Q01DX009 (ip), vehicle: saline 111 % of control | dose: 2.18 mg/kg/injection, schedule: Q01DX009 (ip), vehicle: saline 86 % of control | [21] 101 % of control | [22] 110 % of control | dose: 16.0 mg/kg/injection, schedule: Q01DX003 (ip), vehicle: saline 117 % of control | dose: 17.0 mg/kg/injection, schedule: Q04DX003 (ip), vehicle: saline 101 % of control | dose: 25.0 mg/kg/injection, schedule: Q01DX003 (ip), vehicle: saline 108 % of control | [23] 106 % of control

O=C([O-])C(=O)[O-].[Cu+2].[OH2+]CC[N-]CC[OH2+].[OH2+]CC[N-]CC[OH2+]
inactive: dose: 5.0 mg/kg/injection, schedule: Q01DX001 (ip), vehicle: saline 97 % of control | dose: 10.0 mg/kg/injection, schedule: Q01DX001 (ip), vehicle: saline 92 % of control | dose: 20.0 mg/kg/injection, schedule: Q01DX001 (ip), vehicle: saline 103 % of control

O=C(/C=C(/CC(=O)c1ccccc1)C(=O)c1ccccc1)c1ccccc1
inactive: [11] 103 % of control | [13] 95 % of control | [15] 101 % of control

CCN1CCc2ccccc2C1c1ccccc1 (centres undefined)
inactive: dose: 25.0 mg/kg/injection, schedule: Q01DX009 (ip), vehicle: saline 104 % of control | dose: 50.0 mg/kg/injection, schedule: Q01DX009 (ip), vehicle: saline 103 % of control | [5] 106 % of control and 115 % of control

Clc1ccnc(NC2CCCCC2)c1
inactive: [18] 92 % of control | [19] 98 % of control | [20] 100 % of control

Cc1c2cnccc2c(C)c2c1c1ccccc1n2CCCN
inactive: [21] 97 % of control | [22] 97 % of control | dose: 25.0 mg/kg/injection, schedule: Q01DX001 (oral), vehicle: saline 96 % of control | [23] 89 % of control | dose: 50.0 mg/kg/injection, schedule: Q01DX001 (oral), vehicle: saline 100 % of control | dose: 75.0 mg/kg/injection, schedule: Q01DX001 (oral), vehicle: saline 105 % of control | dose: 100.0 mg/kg/injection, schedule: Q01DX001 (oral), vehicle: saline 86 % of control | dose: 200.0 mg/kg/injection, schedule: Q01DX001 (oral), vehicle: saline 96 % of control

CC(/C=N/N=C(N(C)C)N(C)C)=N/N=C(N(C)C)N(C)C
inactive: dose: 15.0 mg/kg/injection, schedule: Q01DX Z (ip), vehicle: methylcellulose (MC) 94 % of control | dose: 30.0 mg/kg/injection, schedule: Q01DX Z (ip), vehicle: methylcellulose (MC) 97 % of control | dose: 30.0 mg/kg/injection, schedule: Q01DX Z (oral), vehicle: methylcellulose (MC) 102 % of control | dose: 60.0 mg/kg/injection, schedule: Q01DX Z (ip), vehicle: methylcellulose (MC) 97 % of control | dose: 60.0 mg/kg/injection, schedule: Q01DX Z (oral), vehicle: methylcellulose (MC) 95 % of control | dose: 120.0 mg/kg/injection, schedule: Q01DX Z (ip), vehicle: methylcellulose (MC) 101 % of control

CC1CCCC(C)N1C1=NCCO1 (centres undefined)
inactive: dose: 5.0 mg/kg/injection, schedule: Q01DX009 (ip), vehicle: saline with Tween-80 95 % of control | dose: 10.0 mg/kg/injection, schedule: Q01DX009 (ip), vehicle: saline with Tween-80 97 % of control | dose: 20.0 mg/kg/injection, schedule: Q01DX009 (ip), vehicle: saline with Tween-80 95 % of control

CSCCC(NC(=O)COc1ccc(Cl)cc1Cl)C(=O)O (centres undefined)
inactive: [10] 100 % of control | [12] 101 % of control | [14] 108 % of control

Cc1cnc(C)c(OCCN2CC2)n1
inactive: [18] 93 % of control

Nc1nc(=O)[nH]c(N)c1N
inactive: dose: 50.0 mg/kg/injection, schedule: Q04DX003 (ip), vehicle: saline 91 % of control | [18] 98 % of control | [6] 91 % of control | [19] 114 % of control | [8] 88 % of control

Cc1cc(CCl)c(C)c(Br)c1C
inactive: dose: 6.25 mg/kg/injection, schedule: Q01DX009 (ip), vehicle: Klucel (hydroxypropylcellulose) (HPC) 95 % of control | dose: 12.5 mg/kg/injection, schedule: Q01DX009 (ip), vehicle: Klucel (hydroxypropylcellulose) (HPC) 90 % of control | [16] 89 % of control | [17] 92 % of control
